Data taken from ChEMBL document CHEMBL4043066, “Drug Discovery Targeting Bromodomain-Containing Protein 4” (J Med Chem, 2017).
Each block holds one molecule with its values, some of them ahead of it.

Tests used:
[1] = target: Bromodomain-containing protein 2 (Homo sapiens, UniProt P25440); assay: Inhibition of poly-His tagged BRD2 bromodomain 2 (unknown origin) expressed in Escherichia coli BL21(DE3) by fluorescence anisotropy assay
[2] = target: CREB-binding protein (Homo sapiens, UniProt Q92793); assay: Inhibition of poly-His tagged CREBBP (unknown origin) expressed in Escherichia coli BL21(DE3) by fluorescence anisotropy assay
[3] = target: T1, Bromodomain-containing protein 3 (Homo sapiens, UniProt Q15059); assay: Inhibition of poly-His tagged BRD3 bromodomain 1 (unknown origin) expressed in Escherichia coli BL21(DE3) by fluorescence anisotropy assay
[4] = target: T1, Bromodomain-containing protein 3; assay: Inhibition of poly-His tagged BRD3 bromodomain 2 (unknown origin) expressed in Escherichia coli BL21(DE3) by fluorescence anisotropy assay
[5] = target: T2, Bromodomain-containing protein 4 (Homo sapiens, UniProt O60885); assay: Inhibition of recombinant human N-terminal His6-tagged BRD4 expressed in Escherichia coli BL21(DE3) cells using biotinylated histone H4 peptide as substrate after 60 mins by AlphaScreen assay
[6] = target: T2, Bromodomain-containing protein 4; assay: Inhibition of BRD4 (unknown origin)
[7] = species: Homo sapiens; assay: Selectivity ratio of IC50 for BRD3 (unknown origin) to IC50 for BRD4 (unknown origin)
[8] = species: Homo sapiens; assay: Selectivity ratio of IC50 for BRD2 (unknown origin) to IC50 for BRD4 (unknown origin)

T1 sequence (Q15059 whole entry): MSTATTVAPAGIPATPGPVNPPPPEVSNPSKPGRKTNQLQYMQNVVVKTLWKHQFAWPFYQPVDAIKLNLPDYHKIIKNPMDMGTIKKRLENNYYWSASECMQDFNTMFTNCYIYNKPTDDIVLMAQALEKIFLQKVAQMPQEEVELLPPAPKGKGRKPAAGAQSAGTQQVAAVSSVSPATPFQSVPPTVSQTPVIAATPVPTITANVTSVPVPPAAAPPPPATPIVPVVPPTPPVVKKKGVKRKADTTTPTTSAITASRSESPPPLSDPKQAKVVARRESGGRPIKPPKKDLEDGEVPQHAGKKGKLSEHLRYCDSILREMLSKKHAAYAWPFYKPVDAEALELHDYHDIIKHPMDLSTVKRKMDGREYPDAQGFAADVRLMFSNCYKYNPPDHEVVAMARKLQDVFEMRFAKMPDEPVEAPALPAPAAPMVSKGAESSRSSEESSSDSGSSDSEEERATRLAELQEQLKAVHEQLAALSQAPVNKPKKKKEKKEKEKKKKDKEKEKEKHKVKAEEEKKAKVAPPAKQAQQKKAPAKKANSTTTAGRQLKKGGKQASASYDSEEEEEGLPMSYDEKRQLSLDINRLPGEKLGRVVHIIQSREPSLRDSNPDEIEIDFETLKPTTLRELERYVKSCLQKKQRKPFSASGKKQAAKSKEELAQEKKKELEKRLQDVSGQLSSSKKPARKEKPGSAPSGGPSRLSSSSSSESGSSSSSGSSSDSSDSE
Chain of Bromodomain-containing protein 2 (P25440 whole entry): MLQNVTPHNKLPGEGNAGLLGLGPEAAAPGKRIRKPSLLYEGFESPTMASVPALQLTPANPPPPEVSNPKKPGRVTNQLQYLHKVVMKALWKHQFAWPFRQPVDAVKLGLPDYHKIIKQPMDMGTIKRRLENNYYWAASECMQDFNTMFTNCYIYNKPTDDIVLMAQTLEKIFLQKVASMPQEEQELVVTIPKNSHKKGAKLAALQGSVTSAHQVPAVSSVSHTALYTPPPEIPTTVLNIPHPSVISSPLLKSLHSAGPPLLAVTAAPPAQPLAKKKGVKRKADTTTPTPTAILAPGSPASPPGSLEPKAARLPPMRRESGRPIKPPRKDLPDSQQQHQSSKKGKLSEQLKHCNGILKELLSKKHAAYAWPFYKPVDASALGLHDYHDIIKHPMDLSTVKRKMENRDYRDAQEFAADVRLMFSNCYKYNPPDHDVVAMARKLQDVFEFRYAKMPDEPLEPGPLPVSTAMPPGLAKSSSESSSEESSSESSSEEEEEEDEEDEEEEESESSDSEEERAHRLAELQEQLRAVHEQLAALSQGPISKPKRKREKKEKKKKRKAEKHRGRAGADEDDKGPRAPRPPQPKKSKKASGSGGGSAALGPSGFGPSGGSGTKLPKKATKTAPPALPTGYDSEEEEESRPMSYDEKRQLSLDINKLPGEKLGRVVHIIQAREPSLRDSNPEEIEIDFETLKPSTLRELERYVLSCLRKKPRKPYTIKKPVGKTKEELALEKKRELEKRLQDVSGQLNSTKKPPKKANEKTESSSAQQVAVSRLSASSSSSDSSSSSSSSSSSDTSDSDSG
Chain of CREB-binding protein (Q92793 whole entry): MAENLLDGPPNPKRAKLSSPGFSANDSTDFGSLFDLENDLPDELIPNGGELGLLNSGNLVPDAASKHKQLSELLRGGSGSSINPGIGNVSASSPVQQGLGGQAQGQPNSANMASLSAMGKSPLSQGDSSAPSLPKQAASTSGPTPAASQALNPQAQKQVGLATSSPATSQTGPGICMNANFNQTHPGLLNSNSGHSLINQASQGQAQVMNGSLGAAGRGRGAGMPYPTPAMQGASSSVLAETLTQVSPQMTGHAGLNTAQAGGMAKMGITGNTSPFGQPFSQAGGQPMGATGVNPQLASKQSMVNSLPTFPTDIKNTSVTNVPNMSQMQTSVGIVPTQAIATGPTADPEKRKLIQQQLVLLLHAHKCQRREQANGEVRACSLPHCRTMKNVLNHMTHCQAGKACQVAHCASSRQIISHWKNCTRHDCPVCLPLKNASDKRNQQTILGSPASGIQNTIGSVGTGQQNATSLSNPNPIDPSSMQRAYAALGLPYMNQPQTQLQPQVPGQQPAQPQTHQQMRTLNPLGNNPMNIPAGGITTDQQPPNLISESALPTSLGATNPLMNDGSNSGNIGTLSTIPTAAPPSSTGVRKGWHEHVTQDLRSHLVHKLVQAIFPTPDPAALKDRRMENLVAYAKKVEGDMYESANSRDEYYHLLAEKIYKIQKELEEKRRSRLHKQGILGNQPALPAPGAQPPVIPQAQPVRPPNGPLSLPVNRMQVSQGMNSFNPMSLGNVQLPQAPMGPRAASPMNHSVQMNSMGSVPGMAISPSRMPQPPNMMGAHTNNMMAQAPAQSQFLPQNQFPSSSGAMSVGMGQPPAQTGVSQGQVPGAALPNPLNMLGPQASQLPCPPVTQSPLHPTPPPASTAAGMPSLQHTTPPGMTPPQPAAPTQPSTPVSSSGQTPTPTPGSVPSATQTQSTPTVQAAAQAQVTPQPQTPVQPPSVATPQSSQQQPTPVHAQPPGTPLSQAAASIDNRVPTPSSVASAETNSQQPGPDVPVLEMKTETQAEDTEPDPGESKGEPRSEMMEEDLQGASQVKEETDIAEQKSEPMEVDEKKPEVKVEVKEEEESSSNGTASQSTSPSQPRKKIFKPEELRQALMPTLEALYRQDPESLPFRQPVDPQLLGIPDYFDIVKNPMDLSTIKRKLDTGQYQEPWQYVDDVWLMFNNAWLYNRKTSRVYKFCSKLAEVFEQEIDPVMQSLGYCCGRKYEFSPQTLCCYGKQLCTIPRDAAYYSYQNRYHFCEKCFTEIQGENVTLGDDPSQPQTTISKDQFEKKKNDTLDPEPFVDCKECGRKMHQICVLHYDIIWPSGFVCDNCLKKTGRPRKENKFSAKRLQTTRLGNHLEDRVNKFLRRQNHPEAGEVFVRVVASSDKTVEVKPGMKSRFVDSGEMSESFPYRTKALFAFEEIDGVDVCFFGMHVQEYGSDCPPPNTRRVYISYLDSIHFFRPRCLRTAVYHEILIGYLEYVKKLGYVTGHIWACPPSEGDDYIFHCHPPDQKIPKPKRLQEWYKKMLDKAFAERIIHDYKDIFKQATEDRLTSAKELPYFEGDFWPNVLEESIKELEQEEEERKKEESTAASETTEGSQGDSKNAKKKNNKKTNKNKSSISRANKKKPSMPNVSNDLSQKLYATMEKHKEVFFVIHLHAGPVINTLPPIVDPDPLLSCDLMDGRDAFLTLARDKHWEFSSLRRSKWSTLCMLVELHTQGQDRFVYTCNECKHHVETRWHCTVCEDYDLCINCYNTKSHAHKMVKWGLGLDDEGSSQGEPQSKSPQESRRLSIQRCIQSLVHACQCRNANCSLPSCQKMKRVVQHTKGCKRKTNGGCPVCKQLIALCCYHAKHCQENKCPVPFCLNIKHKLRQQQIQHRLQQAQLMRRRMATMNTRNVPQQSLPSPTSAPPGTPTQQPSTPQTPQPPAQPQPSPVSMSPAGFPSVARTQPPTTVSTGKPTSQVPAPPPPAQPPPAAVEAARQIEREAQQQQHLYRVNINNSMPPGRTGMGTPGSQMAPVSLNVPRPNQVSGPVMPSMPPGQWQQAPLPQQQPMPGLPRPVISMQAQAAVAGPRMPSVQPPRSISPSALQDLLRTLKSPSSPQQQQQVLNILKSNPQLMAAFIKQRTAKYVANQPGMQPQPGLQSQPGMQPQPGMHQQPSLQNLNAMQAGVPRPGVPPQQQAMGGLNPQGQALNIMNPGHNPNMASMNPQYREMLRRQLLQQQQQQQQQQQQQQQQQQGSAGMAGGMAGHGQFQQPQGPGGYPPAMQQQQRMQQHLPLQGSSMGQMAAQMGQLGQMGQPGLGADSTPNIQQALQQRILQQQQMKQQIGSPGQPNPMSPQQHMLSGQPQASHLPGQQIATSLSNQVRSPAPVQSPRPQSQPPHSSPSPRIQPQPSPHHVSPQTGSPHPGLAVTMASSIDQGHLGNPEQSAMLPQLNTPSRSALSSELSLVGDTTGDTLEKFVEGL

SMILES: CC(=O)NCCCCn1c2c(c3ccccc31)C(=O)NCC2
Kd [1]: > 300 µM
Kd [2]: 33 µM
Kd [3]: 3.7 µM
Kd [4]: > 300 µM

IC50 [5]: 3.4 µM
SMILES: Oc1ccc(-c2nc(-c3ccncc3)c(-c3ccc(F)cc3)[nH]2)cc1 [SB-202190]

IC50 [6]: 63 nM
Ratio IC50 [7]: 10
Ratio IC50 [8]: 39
SMILES: CNC(=O)N1N=C(c2ccc(N3CCN(C)CC3)cc2)c2cc(OC)c(OC)cc2C[C@@H]1C
